Results as given in patent publication US20040122209A1, “Products for regulating the degradation of collagen and methods for identifying same” (Shriners Hospital For Children, priority 2002, published 2004).

Experiments:
MMP-1 = assay: RT-PCR of MMP-1 mRNA in human chondrocyte culture; format: cell-based; conditions: 24 hours incubation; data not shown
Source text: Isolated normal human chondrocytes were used for chondrocyte cultures, detection of integrin expression by FACScan, and cell attachment assays. The dissected normal human cartilage obtained at autopsy was cut into small cubes 2-4 mm in size. Chondrocytes were isolated as previously described (34), with some modifications. Briefly, the cubes were washed three times with medium (A). Thereafter, the diced cartilage was digested with 0.1% (wt/vol) trypsin (Sigma) and 0.02% (wt/vol) EDTA (Sigma) for 60 minutes (25 ml/10 g wet weight tissue) at 37° C. After washing the cartilage with Medium A containing 10% heat-inactivated fetal calf serum (FCS) to inhibit the trypsin, the digestion was continued in the same medium with serum (50 ml/10 g wet weight tissue) containing 0.2% (wt/vol) collagenase (type IA; Sigma) for 16 h at 37° C. with gentle agitation on a gyrotary shaker. Undigested cartilage was removed by filtration through a layer of nylon mesh (Cell Strainer; Becton Dickinson Labware, NJ). […]
Total RNA was isolated from chondrocytes or cartilage explants by the guanidine isothiocyanate procedure according to Chomczynski and Sacchi (Chomczynski, P. et al., Anal. Biochem. 162:156-9 (1987)) with some modifications. […] The total RNA pellet was resuspended in diethyl pyrocarbonate-treated (DEPC) water and the amount of total RNA was measured by reading optical density at 260 nm. […]

ERK1/2 = assay: Western immunoblot for phosphorylated ERK1/2 in human chondrocytes; format: cell-based
Protocol: To detect activation of MAP kinases (ERK1/2, p38 MAPK, and JNK1/2), first-passaged chondrocytes plated onto 10-cm culture dishes were incubated with CB12-II (SP), USP, TNF-α, native human type II collagen, human fibronectin, and antibodies to α2β1 and α5β1 for 5-60 min. In some experiments, chondrocytes were precultured with U0126 (inhibitor of phosphorylation of MEK1/2, up-stream kinase molecule of ERK1/2) at 1 μM for 1 h, SB203580 (inhibitor of phosphorylation of p38 MAPK) at 1 μM for 1 h, Herbimycin A (tyrosine kinase inhibitor) at 1 μg/ml for overnight, Wortmannin (PI3 kinase inhibitor) at 100 nM for 1 h, and Cytochalasin D (focal adhesion inhibitor) at 3 μM for 30 or 60 min before adding peptides.
After a variable but designated incubation time, chondrocytes were washed twice with ice cold PBS and lysed in RIPA buffer (10 mM Tris/HCl, pH 7.4, 0.1% SDS, 1% NP-40, 0.1% sodium deoxycholate, 150 mM NaCl, 1 mM EDTA) containing freshly added proteinase and phosphatase inhibitors (1 mM PMSF, 10 μg/ml leupeptin, 1 μg/ml aprotinin, 1 mM Na3VO4, 1 mM NaF). Cell lysate was centrifuged and supernatant was collected. Protein concentration was determined using Bradford's method. Equal amounts of protein were separated on 10% SDS-polyacrylamide gels under reducing conditions and were electrotransferred to a nitrocellulose membrane (Bio-Rad). To block nonspecific binding, the membranes were incubated in PBS containing 5% non-fat milk overnight at 4° C. The membranes were then probed with rabbit antibodies against phosphorylated ERK1/2, p38, and JNK1/2 (New England BioLabs). Antibodies were diluted 1:1000 in PBS containing 0.5% non-fat milk and reacted with the membrane for 1 h at room temperature. Blots were washed with PBS containing 0.1% Tween-20 three times, and incubated for 1 h at room temperature with horseradish peroxidase (HRP)-conjugated goat anti-rabbit IgG (New England BioLabs) diluted 1:2000 with PBS-0.1% Tween 20 for ECL system (Amersham). Then, the membranes were washed with PBS-Tween, and the membranes were detected with the addition of a 1:1 dilution of the ECL detection reagents (Amersham) 1 and 2 for 1 min. The solution was removed, and the membranes were wrapped in plastic wrap and exposed to film for various amounts of time.
First-passaged confluent human chondrocytes were treated with CB12-II (SP) (10 μM), USP (10 μM), anti-α2β1and α5β1 antibodies, anti-integrin α2β1 blocking antibody, and IL-1β or TNF-α. Cell lysates were immunoblotted using antibody that detects phosphorylated p-ERK1I/2 or p-MEK. In some experiments, U0126 at 10 μM, a specific inhibitor of an upstream molecule, MEK1/2, that activates ERK1/2, and SB203580 at 10 μM, that inhibits p38 MAPK activity, were added to the culture 1 h before peptides, antibodies, and cytokines. Herbimycin A, cytochalasin D, and wortmannin were also used as inhibitors.

ERGPPGPQGARGFPGTPGLPGVK [CB12-II]
MMP-1 gene expression (mRNA by RT-PCR) (MMP-1): clearly induced | phosphorylation of ERK1/2 compared with USP at the same concentration (ERK1/2; 10 μM): more than USP | time of maximum ERK1/2 phosphorylation (ERK1/2; 10 μM): 15 to 30 min | time to phosphorylation of ERK1/2 after adding peptide (ERK1/2; 10 μM): ≤ 5 min | phosphorylation of ERK 1/2, dose dependence (ERK1/2; 1, 10 and 50 μM, 15 min after addition): dose-dependently
